Experimental data taken from US20260115203A1 (LABORATORIOS LITAPHAR, S.L., priority 2023, published 2026).
“Also recorded” adds a separate entry of the source. Read-outs that look alike come from different tables or passages of the source.

What was measured:
[1] = molecular target: T1, human glucocorticoid receptor (Homo sapiens, UniProt P04150); settings: cited from earlier work
T1 sequence (P04150 1-777): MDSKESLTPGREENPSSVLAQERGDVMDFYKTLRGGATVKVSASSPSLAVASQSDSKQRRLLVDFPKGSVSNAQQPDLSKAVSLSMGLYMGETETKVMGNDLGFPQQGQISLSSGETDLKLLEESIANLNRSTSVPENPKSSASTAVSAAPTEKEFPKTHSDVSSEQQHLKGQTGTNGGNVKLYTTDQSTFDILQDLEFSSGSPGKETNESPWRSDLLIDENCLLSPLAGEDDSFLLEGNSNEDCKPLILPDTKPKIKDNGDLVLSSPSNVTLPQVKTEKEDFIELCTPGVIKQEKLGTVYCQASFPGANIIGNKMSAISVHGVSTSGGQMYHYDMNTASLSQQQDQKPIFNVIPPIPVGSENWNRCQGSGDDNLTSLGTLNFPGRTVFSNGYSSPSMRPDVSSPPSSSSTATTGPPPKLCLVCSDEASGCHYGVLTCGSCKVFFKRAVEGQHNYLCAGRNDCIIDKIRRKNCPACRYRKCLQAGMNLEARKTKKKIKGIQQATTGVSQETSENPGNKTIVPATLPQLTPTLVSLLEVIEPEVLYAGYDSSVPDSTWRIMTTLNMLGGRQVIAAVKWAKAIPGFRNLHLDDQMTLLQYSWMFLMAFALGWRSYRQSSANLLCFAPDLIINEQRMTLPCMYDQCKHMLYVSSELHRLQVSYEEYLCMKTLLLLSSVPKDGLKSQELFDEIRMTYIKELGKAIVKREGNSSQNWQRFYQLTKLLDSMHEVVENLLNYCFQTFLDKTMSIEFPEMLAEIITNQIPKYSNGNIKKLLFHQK

[2] = compared with parent drug mifepristone; cited from earlier work
[3] = molecular target: T2, human progesterone receptor (Homo sapiens, UniProt P06401); settings: cited from earlier work
T2 sequence (P06401 1-933): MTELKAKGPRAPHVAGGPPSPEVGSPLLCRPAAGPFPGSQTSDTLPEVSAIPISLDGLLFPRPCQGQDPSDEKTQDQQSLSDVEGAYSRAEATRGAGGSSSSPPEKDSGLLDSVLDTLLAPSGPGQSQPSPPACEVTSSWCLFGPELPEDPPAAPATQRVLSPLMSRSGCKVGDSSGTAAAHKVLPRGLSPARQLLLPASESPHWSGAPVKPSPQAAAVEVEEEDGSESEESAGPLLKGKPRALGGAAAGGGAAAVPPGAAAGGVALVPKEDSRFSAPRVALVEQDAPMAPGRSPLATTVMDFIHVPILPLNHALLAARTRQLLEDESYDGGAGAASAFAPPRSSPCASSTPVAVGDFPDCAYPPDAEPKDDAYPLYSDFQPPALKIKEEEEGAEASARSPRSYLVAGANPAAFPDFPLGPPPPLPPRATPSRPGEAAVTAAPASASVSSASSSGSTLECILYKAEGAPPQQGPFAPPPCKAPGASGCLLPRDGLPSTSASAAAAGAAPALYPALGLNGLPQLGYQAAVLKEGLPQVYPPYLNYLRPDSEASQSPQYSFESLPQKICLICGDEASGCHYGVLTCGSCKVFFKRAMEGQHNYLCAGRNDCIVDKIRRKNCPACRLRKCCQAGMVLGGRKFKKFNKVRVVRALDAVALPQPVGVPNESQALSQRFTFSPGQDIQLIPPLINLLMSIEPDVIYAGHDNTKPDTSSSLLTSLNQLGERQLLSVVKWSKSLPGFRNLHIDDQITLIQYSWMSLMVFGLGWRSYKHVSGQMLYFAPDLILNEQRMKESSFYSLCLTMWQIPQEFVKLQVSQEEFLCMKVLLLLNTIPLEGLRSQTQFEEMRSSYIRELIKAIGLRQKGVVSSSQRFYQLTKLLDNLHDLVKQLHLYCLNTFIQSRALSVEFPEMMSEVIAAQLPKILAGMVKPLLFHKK

[4] = tested on: women with laparoscopic diagnostic of endometriosis; settings: cited from earlier work
[5] = tested on: women with endometriosis; settings: 50 mg orally daily, 6 months, cited from earlier work
[6] = tested on: women with endometriosis; settings: 100 mg orally daily, three months, cited from earlier work
[7] = tested on: women with endometriosis; settings: 5 mg orally daily, 6 months, cited from earlier work
[8] = tested on: endometriosis in reproductive-age women; experiment: Randomized, double-blind clinical trial of mifepristone 2.5 mg and 5 mg vs. placebo (EudraCT 2018-002367-26), endometriosis associated pain by VAS; type: in vivo
Description: Both mifepristone products were formulated as tablets with the following respective compositions: […]
The planned number of subjects to be included in the whole clinical trial was 490.
The principal inclusion criteria were: • [1] Premenopausal female, between 18 and 45 years of age inclusive, at the time of signing consent • [2] Patients with Endometriosis Associated Pelvic Pain (EAPP: i.e. any type of pelvic pain associated with endometriosis: nonmenstrual pelvic pain, dysmenorrhea, dyschezia and dyspareunia) as measured by Visual Analogue Scale (VAS)≥40 mm at least once in the previous 4 weeks from baseline visit • [3] Patients with a history of EAPP for at least the past 6 months prior to the initial screening visit • [4] Endometriosis diagnosed by laparoscopy and/or surgery in the past 10 years or less or diagnosed by MRI or transvaginal ultrasound in the past 5 years • [5] Patients with a history of regular menstrual cycles (21-35 days) while not being on any pharmacological treatment that could alter the menstrual cycle (e.g. oral contraceptive pills) • [6] Patients who agree to use only ibuprofen 400 mg as rescue medication up to a total daily dose of not more than 2400 mg • [7] Patients willing and able (e.g. mental and physical condition) to participate in all aspects of the study as evidenced by providing signed written informed consent • [8] Patient agrees to use double barrier contraception birth control methods (e.g. condom with spermicide) during the entire length of participation in the study. […] History of hypersensitivity or intolerance to the active substance or any of the excipients of the study medication • [2] Subject is pregnant or breast-feeding or is planning a pregnancy within the duration of the study or is less than 6 months postpartum, post-abortion, or post-lactation at the time of entry into the screening period • [3] Previous use of hormonal agents before the Screening visit: ≤24 weeks for GnRH agonists; ≤12 weeks for depot progestogens and danazol: ≤6 weeks for oral contraceptives • [4] Patients with history of any cancer (including breast cancer) and/or histological diagnosis of endometrial atypical hyperplasia at baseline (note: the combination of endometrial thickness<5 mm determined by transvaginal ultrasound and insufficient material for histological evaluation from the endometrial biopsy will be regarded as atrophic endometrium) • [5] Other clinically significant gynaecological condition causing abnormal uterine bleeding already known or identified on Screening such as severe adenomyosis or symptomatic uterine fibroids requiring treatment • [6] Subject has current or history of abnormal genital bleeding • [7] Presence of ovarian cyst of unknown etiology • [8] Cervical smear with pathological findings: class III or higher according to Papanicolaou, class IIp or higher according to the Munich Ill nomenclature or ASC-US or higher according to the Bethesda system • [9] Surgical treatment of endometriosis within 3 months prior to the screening visit • [10] Presence of chronic pain other than pain due to endometriosis • [11] Hepatic insufficiency • [12] History of, or complications of, thrombosis, embolism, or serious cardiac, respiratory (severe asthma not adequately controlled by treatment), renal, hematologic, endocrine diseases • [13] Uncontrolled or inadequately controlled hypertension at the time of screening with a resting supine systolic or diastolic blood pressure>180 mmHg or >95 mmHg, respectively • [14] Subject with hereditary porphyria • [15] Abnormal laboratory findings considered by the investigator as clinically significant • [16] Positive results for HBs-Ag, anti-HCV and HIV-1/HIV-2-antibodies • [17] […]

## CN(C)c1ccc([C@H]2C[C@@]3(C)[C@@H](CC[C@]3(O)C#CCO)[C@@H]3CCC4=CC(=O)CCC4=C32)cc1 [RU 42698]
[1]
  affinity toward the human glucocorticoid receptor: considerable affinity
[2]
  serum concentrations: in a similar range as those of the parent drug
[3]
  affinity toward the human progesterone receptor: considerable affinity

## CC#C[C@]1(O)CC[C@H]2[C@@H]3CCC4=CC(=O)CCC4=C3[C@@H](c3ccc(N(C)C)cc3)C[C@@]21C [mifepristone]
[4]; 2.5 mg oral dose
  amenorrhea and clinical improvement, 2.5 mg group vs 5 and 10 mg groups: significantly lower percentages of amenorrhea and clinical improvement than the 5 and 10 mg groups
  use of analgesics (rescue therapy), 2.5 mg group vs 5 and 10 mg groups: significantly greater use of analgesics
[4]; 2.5, 5 and 10 mg oral doses, all treatment groups
  effectiveness against placebo: more effective than the placebo group
[4]; after 90 and 180 days of treatment
  clinical improvement, 5 mg vs 10 mg: no differences were observed
[5]; all patients
  amenorrhea / hypoestrogenism: amenorrhea without hypoestrogenism
[5]; nine women
  pelvic pain and uterine cramping: improved in all patients
[5]
  regression of endometriosis (laparoscopic assessment, AFS score): 55%
[6]; six women
  amenorrhea: reported by all study participants
  pelvic pain: all women also reported improvement
[6]
  extent of endometriosis (follow-up laparoscopy): no significant change
[7]; seven women
  cyclic bleeding: ceased in all patients
  pelvic pain: improved in six of seven patients
[7]
  decrease of mean endometriosis scores: decreased by only %
[8]; 2.5 mg (T1) vs 5 mg (T2) per day
  pain relief, 2.5 mg daily dose compared with 5 mg daily dose: more pronounced than the 5 mg group; also recorded: more effective than the 5 mg dose; also recorded: less pelvic pain than with a daily dose of 5 mg
[8]; 2.5 mg tablet every day as monotherapy, lesions in cesarean sections or ovarian endometriomas
  pain associated with extra-pelvic endometriosis: effective to reduce the pain associated with extra-pelvic endometriosis; also recorded: appropriate pain relief
[8]; 5 mg dose compared with 2.5 mg dose
  endometrial thickening: markedly greater endometrial thickening than the lower dose of 2.5 mg
[8]; T1, 2.5 mg mifepristone per day, 1 month of treatment
  EAP (VAS): 29.19
[8]; T1, 2.5 mg mifepristone per day, 2 months of treatment
  EAP (VAS): 24.61
[8]; T1, 2.5 mg mifepristone per day, 3 months of treatment
  EAP (VAS): 23.63
[8]; T1, 2.5 mg mifepristone per day, 4 months of treatment
  EAP (VAS): 22.31
[8]; T1, 2.5 mg mifepristone per day, month 0 (before treatment)
  EAP (VAS): 32.81
[8]; T2, 5 mg mifepristone per day, 1 month of treatment
  EAP (VAS): 29.30
[8]; T2, 5 mg mifepristone per day, 2 months of treatment
  EAP (VAS): 26.11
[8]; T2, 5 mg mifepristone per day, 3 months of treatment
  EAP (VAS): 24.58
[8]; T2, 5 mg mifepristone per day, 4 months of treatment
  EAP (VAS): 25.01
[8]; T2, 5 mg mifepristone per day, month 0 (before treatment)
  EAP (VAS): 32.81
[8]; daily dose of 2.5 mg alone, no analgesic rescue medication
  intensity of pain associated with endometriosis: significant reduction

## CC#C[C@]1(O)CC[C@H]2[C@@H]3CCC4=CC(=O)CCC4=C3[C@@H](c3ccc(NC)cc3)C[C@@]21C [RU 42633]
[1]
  affinity toward the human glucocorticoid receptor: considerable affinity
[2]
  serum concentrations: in a similar range as those of the parent drug
[3]
  affinity toward the human progesterone receptor: considerable affinity

## CC#C[C@]1(O)CC[C@H]2[C@@H]3CCC4=CC(=O)CCC4=C3[C@@H](c3ccc(N)cc3)C[C@@]21C [RU 42848]
[1]
  affinity toward the human glucocorticoid receptor: considerable affinity
[2]
  serum concentrations: in a similar range as those of the parent drug
[3]
  affinity toward the human progesterone receptor: considerable affinity
